Measured values taken from paper PMC6365106 (Clinical pharmacology and therapeutics, 2016).
Values belong to the compound of their own block, whether it stands above or below them.

Key:
OATP1B1 [1] = target: T1, OATP1B1 (Homo sapiens, UniProt Q9Y6L6); experiment: in vitro; assay type: cell-based; settings: oatp1b1-transfected cells
T1 sequence (Q9Y6L6 1-691): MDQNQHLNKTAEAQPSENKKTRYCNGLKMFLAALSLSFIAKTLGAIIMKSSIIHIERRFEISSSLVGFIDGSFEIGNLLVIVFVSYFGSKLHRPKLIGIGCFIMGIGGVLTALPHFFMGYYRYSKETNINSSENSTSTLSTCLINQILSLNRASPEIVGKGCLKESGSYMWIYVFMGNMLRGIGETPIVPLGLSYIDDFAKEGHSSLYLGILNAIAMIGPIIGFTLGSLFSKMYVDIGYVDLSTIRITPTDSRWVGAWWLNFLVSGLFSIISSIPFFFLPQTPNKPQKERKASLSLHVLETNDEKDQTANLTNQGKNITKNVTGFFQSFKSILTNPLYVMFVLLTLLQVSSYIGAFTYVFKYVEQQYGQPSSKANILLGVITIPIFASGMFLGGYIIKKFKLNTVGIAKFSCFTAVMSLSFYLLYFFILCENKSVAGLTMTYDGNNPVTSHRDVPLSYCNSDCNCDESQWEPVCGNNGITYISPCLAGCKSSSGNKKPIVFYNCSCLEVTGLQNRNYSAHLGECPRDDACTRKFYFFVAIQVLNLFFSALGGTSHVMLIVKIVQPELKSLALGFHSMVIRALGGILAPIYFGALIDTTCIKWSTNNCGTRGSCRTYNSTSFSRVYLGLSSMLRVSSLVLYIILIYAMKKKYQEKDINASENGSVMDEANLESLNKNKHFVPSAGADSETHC

OATP1B1 [2] = target: T1, OATP1B1; experiment: in vitro; settings: hek293 cells
OAT3 [3] = target: T2, OAT3 (Homo sapiens, UniProt Q8TCC7); experiment: 3H-HDA uptake in OAT3-expressing HEK293 cells, blocked by probenecid; assay type: cell-based; settings: HEK293, read-out: % inhibition at 30 μM
T2 sequence (Q8TCC7 1-542): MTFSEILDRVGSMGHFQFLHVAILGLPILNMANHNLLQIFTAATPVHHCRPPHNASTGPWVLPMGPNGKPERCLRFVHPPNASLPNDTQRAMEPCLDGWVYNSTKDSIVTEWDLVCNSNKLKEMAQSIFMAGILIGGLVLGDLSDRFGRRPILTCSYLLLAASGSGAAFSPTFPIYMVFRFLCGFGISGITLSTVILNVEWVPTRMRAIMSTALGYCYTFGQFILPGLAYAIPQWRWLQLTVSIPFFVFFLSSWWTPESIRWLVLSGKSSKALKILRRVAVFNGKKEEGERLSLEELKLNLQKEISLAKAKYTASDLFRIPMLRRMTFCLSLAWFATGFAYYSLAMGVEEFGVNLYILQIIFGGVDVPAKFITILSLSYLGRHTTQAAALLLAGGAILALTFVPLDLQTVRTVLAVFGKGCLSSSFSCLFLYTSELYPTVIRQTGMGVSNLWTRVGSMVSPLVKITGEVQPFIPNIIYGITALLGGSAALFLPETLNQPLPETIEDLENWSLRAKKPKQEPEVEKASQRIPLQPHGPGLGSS

OAT1 [4] = target: T3, OAT1 (Homo sapiens, UniProt Q4U2R8); experiment: 3H-HDA uptake in OAT1-expressing HEK293 cells, blocked by probenecid; assay type: cell-based; settings: HEK293, read-out: % inhibition at 30 μM
T3 sequence (Q4U2R8 1-563): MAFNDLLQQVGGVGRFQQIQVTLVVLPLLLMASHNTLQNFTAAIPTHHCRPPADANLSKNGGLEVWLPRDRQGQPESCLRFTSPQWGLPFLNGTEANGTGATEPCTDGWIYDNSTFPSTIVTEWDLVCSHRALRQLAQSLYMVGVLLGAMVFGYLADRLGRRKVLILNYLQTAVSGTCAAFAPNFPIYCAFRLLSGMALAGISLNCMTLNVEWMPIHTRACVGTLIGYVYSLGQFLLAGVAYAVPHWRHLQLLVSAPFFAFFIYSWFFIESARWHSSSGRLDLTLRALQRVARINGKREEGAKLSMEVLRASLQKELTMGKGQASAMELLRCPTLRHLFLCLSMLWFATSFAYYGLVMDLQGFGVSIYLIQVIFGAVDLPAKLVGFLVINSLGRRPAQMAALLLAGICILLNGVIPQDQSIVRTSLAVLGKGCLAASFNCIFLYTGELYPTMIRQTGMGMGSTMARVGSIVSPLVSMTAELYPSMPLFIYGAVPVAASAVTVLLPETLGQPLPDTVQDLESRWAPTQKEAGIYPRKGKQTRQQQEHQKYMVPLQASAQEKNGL

OAT1 [5] = target: T3, OAT1; experiment: 3H-TDA uptake in OAT1-expressing HEK293 cells, blocked by probenecid; assay type: cell-based; settings: HEK293, read-out: % inhibition at 30 μM
OATP1B1 [6] = target: T1, OATP1B1; experiment: in vitro; settings: hek293 cells; remark: listed apart in the source
OAT3 [7] = target: T2, OAT3; experiment: 3H-TDA uptake in OAT3-expressing HEK293 cells, blocked by probenecid; assay type: cell-based; settings: HEK293, read-out: % inhibition at 30 μM

Structure (SMILES): C[C@H](CCC(=O)NCC(=O)O)[C@H]1CC[C@H]2[C@@H]3CC[C@@H]4C[C@H](O)CC[C@]4(C)[C@H]3C[C@H](O)[C@]12C [Glycodeoxycholate]
inhibition at 30 µM (OATP1B1 [1]): > 70%

IC50 (OATP1B1 [2]): 1600 to 4000 nM | inhibition at 30 µM (OAT3 [3]): > 70% | inhibition at 30 µM (OAT1 [4]): > 30%
Structure (SMILES): O=C(O)CCCCCCCCCCCCCCC(=O)O [HDA, hexadecanedioic acid]

inhibition at 30 µM (OAT1 [5]): > 30% | IC50 (OATP1B1 [6]): 1600 to 4000 nM | inhibition at 30 µM (OAT3 [7]): > 70%
Structure (SMILES): O=C(O)CCCCCCCCCCCCC(=O)O [TDA, tetradecanedioic acid]

Structure (SMILES): C[C@H](CCC(=O)NCCS(=O)(=O)O)[C@H]1CC[C@H]2[C@@H]3CC[C@@H]4C[C@H](OS(=O)(=O)O)CC[C@]4(C)[C@H]3CC[C@]12C [TLS, Taurolithocholate 3-sulfate]
inhibition at 30 µM (OATP1B1 [1]): > 70%
